# Assays:
# [1] = Pharmacokinetics after repeated administration (Q7D×3) to rats; type: in vivo
# Experimental: Each rat received a 30 minute infusion once a week for three weeks (Q7D×3).
# Br-IPM being capable of reacting with water and a number of other nucleophiles, for HPLC analysis of Br-IPM, the plasma obtained was frozen and treated with NaF and potassium oxalate.
# [2] = Pharmacokinetics after repeated administration (Q7D×3) to dogs; type: in vivo
# Description: These changes were reversible.
# [3] = tested on: IGROV1 human ovarian cancer cells; assay: IGROV1 ovarian cancer xenograft; type: in vivo; conditions: CDDP 4 mg/kg and 6 mg/kg i.p. Q7D×2 (both doses)
# Experimental: Forty nude mice were subcutaneously implanted with IGROV1 human ovarian cancer cells (5×10^6 cells/mouse). The tumor volumes were measured twice weekly starting on day 7. On day 8, tumor volumes reached about 97.7±3.9 mm^3. The mice were randomized in 3 treatment groups that were administered the following: CDDP (4 mg/kg, ip, Q7D×2), CDDP (6 mg/kg, i.p. Q7D×2), and TH302 (75 mg/kg, i.v., Q7D×2). A control group of mice were administered saline. […] Forty five days after the first administration of TH302, tumor growth inhibition was 66%. The tumor growth delay (to 300 mm^3) was 19 days.
# [4] = tested on: HT29 Human colorectal cancer cells; assay: HT29 xenograft, TH302 in combination with irinotecan; type: in vivo, mice; conditions: CPT-11 monotherapy 50 mg/kg i.p. Q7D×3, vs control group
# Experimental: TH302 and irinotecan (CPT-11) were formulated as follows: TH302 (7.5 mg/mL) in saline and CPT-11 (5 mg/mL) in 2% Tween80-saline. The formulations were filtered through a 0.2 μm filter then delivered to animals within one hour after it was made. HT29 Human colorectal cancer cells were prepared in 50% matrigel and 50% RPMI 1640 medium and implanted (3×10^6 cells) in the subcutaneous space of the right flank of 90 mice (0.2 mL/mouse). Tumor volumes reached about 160 mm^3 on day 12 day post implantation. Seventy two animals with similar tumor size were chosen for treatment after randomization. The remaining mice were used as no treatment control.
# The mice were administered TH302 intravenously at 75 mg/kg, once per week for 2 weeks (Q7D×2, i.v.) alone, and in combination with CPT-11, administered at, 50 mg/kg, (Q7D×3, intraperitoneally (i.p.)). […] After dosing started, tumor volumes were measured twice per week. […] For the mice administered CPT-11 alone, i.e., those on CPT-11 monotherapy, 41% tumor growth inhibition was observed compared to the control group of mice.
# [5] = tested on: PC-3 human prostate tumor; assay: GFP PC3 prostate orthotopic model; type: in vivo, mice
# [6] = tested on: PC-3 human prostate cells; assay: PC-3 luciferase intracardiac metastasis model (bioluminescence); type: in vivo, nude mice
# Experimental: Male nude mice were injected into their left ventricle with PC-3 human prostate cells (3×10^6) transfected with the gene for luciferase. The success of the intracardiac transfections was verified by a bioluminescence scan after the injection. On day 14, the mice with established bone tumor burden were randomized into four treatment groups (N=10): Taxotere® alone (20 mg/kg once a week for three weeks, i.v.), TH302 alone (50 mg/kg daily, 5 days a week for 3 weeks), combination treatment with both agents, and vehicle. Bioluminescence imaging was performed under anesthesia using an IVIS 50 optical imaging system.
# [7] = bromo-IPM in rats after TH302 12.5 mg/kg Q7D×3, Day 15
# [8] = bromo-IPM in rats after TH302 25 mg/kg Q7D×3, Day 15
# [9] = bromo-IPM in rats after TH302 50 mg/kg Q7D×3, Day 15
# [10] = bromo-IPM in dogs after TH302 8 mg/kg Q7D×3, Day 15
# [11] = bromo-IPM in dogs after TH302 16 mg/kg Q7D×3, Day 15
compound,measurement,setting,value
"O=P(O)(NCCBr)NCCBr [Br-IPM, HO—P(═O)(NHCH2CH2Br)2]",AUC,[1]; [7],107 ng·h/mL
same,Cmax,[1]; [7],286 ng/mL
same,half-life,[1]; [7],8.88 min
same,AUC,[1]; [8],97 ng·h/mL
same,Cmax,[1]; [8],375 ng/mL
same,half-life,[1]; [8],8.28 min
same,AUC,[1]; [9],143 ng·h/mL
same,Cmax,[1]; [9],385 ng/mL
same,half-life,[1]; [9],23 min
same,AUC of the active toxin Br-IPM,"[1]; rats, after TH302 25 mg/kg",about 97 h×ng/mL
same,AUClast,[2]; [10],21.8 ng·h/mL
same,Cmax,[2]; [10],62.7 ng/mL
same,AUClast,[2]; [11],60.7 ng·h/mL
same,Cmax,[2]; [11],146 ng/mL
same,half-life,[2]; [11],18.3 min
same,AUC of the active toxin Br-IPM,"[2]; dogs, after TH302 8 mg/kg",about 21.8 h×ng/mL
"N.N.[Cl][Pt][Cl] [CDDP, reference compound]",reduction in tumor volume,[3],did not show significant reduction in tumor volume
"CCc1c2c(nc3ccc(OC(=O)N4CCC(N5CCCCC5)CC4)cc13)-c1cc3c(c(=O)n1C2)COC(=O)[C@]3(O)CC [CPT-11, irinotecan]",tumor growth inhibition,[4],41%
"CC(=O)O[C@@]12CO[C@@H]1C[C@H](O)[C@@]1(C)C(=O)[C@H](O)C3=C(C)[C@@H](OC(=O)[C@H](O)[C@@H](NC(=O)OC(C)(C)C)c4ccccc4)C[C@@](O)([C@@H](OC(=O)c4ccccc4)[C@H]21)C3(C)C [Taxotere®, Docetaxel]",tumor volume regressed to,"[5]; Taxotere 12 mg/kg once a week for two weeks, alone or with TH302",21±15 mm^3
same,tumor volume on day 62,"[5]; Taxotere alone or with TH302, P<0.01 combination vs Taxotere alone",766 mm^3
same,tumor growth delay (TGD),"[5]; single agent, Taxotere 12 mg/kg once a week for two weeks",31 days
same,"toxicities (weight loss, deaths)","[6]; TH302 50 mg/kg daily 5 days a week for 3 weeks, Taxotere 20 mg/kg once a week for three weeks i.v., or both",weight loss and a toxicity-related death
same,bone metastases and soft tissue tumor burden compared to vehicle,"[6]; Taxotere alone 20 mg/kg once a week for three weeks, i.v.",significant reduction in bone metastases and soft tissue tumor burden
